From patent US20230011571A1, “SMALL MOLECULE FURIN INHIBITORS FOR TREATING INFECTIOUS DISEASES” (BP Asset V, Inc., priority 2019, published 2023)
Converted amounts (≈) assume the structure as drawn. Read-outs that look alike come from different tables or passages of the source.

What was measured:
Type in all cases: cell-based
[1] = tested on: Chikungunya virus (CHIKV); test: microbe, parasite or virus in culture; conditions: Chikungunya virus, Vero, 48 h, read-out: Percent viral inhibition CHKV
dengue virus (DENV) = test: microbe, parasite or virus in culture; conditions: Dengue virus, Vero, 120 h, read-out: Percent viral inhibition DENY
Marburg virus (MARV) = test: organism not typed; conditions: Vero, 72 h, read-out: Percent viral inhibition MARV
[2] = tested on: Chikungunya (S27; Vero 76); test: In vitro viral inhibition, Chikungunya; conditions: Chikungunya virus
[3] = tested on: Dengue Virus 2 (New Guinea C; Huh7); test: In vitro viral inhibition, Dengue Virus 2
[4] = tested on: Eastern equine encephalitis (FL39-939; Vero 76); test: cells
[5] = tested on: Japanese encephalitis virus (SA-14; Vero 76); test: In vitro viral inhibition, Japanese encephalitis virus
[6] = tested on: Mayaro virus (BE AR 505411; Vero 76); test: In vitro viral inhibition, Mayaro virus; conditions: strain BE AR 505411, Vero 76 cells
Experimental: (§1) In vitro studies of the antiviral activity were also carried out for several viruses using Example 369.

Measles (CC; Vero 76) = test: In vitro viral inhibition, Measles; conditions: Measles morbillivirus, strain CC, Vero 76 cells
Experimental: as §1

[7] = tested on: Powassan virus (LB; BHK-21); test: microbe, parasite or virus in culture
[8] = tested on: Respiratory syncytial virus (A2; RD); test: In vitro viral inhibition, Respiratory syncytial virus; conditions: human respiratory syncytial virus
Experimental: as §1

[9] = tested on: Usutu virus (TC-508; Vero 76); test: In vitro viral inhibition, Usutu virus; conditions: strain TC-508, Vero 76 cells
Experimental: as §1

[10] = tested on: Venezuelan equine encephalitis (TC-83; Vero 76); test: cells
[11] = tested on: Western equine encephalitis (California; Vero 76); test: cells
[12] = tested on: Yellow Fever (YFV 17D; Huh7); test: microbe, parasite or virus in culture
[13] = Vero 76, read-out: EC50 (ug/mL) (Neutral Red (NR) Assay)
[14] = Vero 76, read-out: EC50 (ug/mL) (VIS Drug Assay)
[15] = Huh-7, read-out: EC50 (ug/mL) (Neutral Red (NR) Assay)
[16] = Huh-7, read-out: EC50 (ug/mL) (VIS Drug Assay)
[17] = Neutral Red assay, read-out: EC50 (ug/mL) (Neutral Red (NR) Assay)
[18] = VIS assay, read-out: EC50 (ug/mL) (VIS Drug Assay)

## CC(=O)NCC1CCN(Cc2cc(Oc3cnc(N4CCN(CCC(C)C(=O)O)CC4)nc3)nc(-c3cc(Cl)cc(Cl)c3)c2)CC1 (stereo not drawn) [Example 369, 4-(4-(5-((4-((4-(acetamidomethyl)piperidin-1-yl)methyl)-6-(3,5-dichlorophenyl)pyridin-2-yl)oxy)pyrimidin-2-yl)piperazin-1-yl)-2-methylbutanoic acid]
[1]
  inhibition at 1 µM: 32.9%
Dengue virus (DENV)
  inhibition at 1 µM: 33.3%
Marburg virus (MARV)
  inhibition at 1 µM: 47.1%
[2]; [13]
  EC50: 0.18 µg/mL (≈ 0.268 µM)
[2]; [14]
  EC50: 0.12 µg/mL (≈ 0.179 µM)
[3]; [15]
  EC50: < 0.1 µg/mL
[3]; [16]
  EC50: < 0.1 µg/mL
[4]; [13]
  EC50: < 0.1 µg/mL
[4]; [14]
  EC50: < 0.1 µg/mL
[5]; [13]
  EC50: 3 µg/mL (≈ 4.47 µM)
[5]; [14]
  EC50: 0.32 µg/mL (≈ 0.477 µM)
[6]; [17]
  EC50: 0.28 µg/mL (≈ 0.418 µM)
[6]; [18]
  EC50: 0.32 µg/mL (≈ 0.477 µM)
Measles (CC; Vero 76); [17]
  EC50: < 0.1 µg/mL
Measles (CC; Vero 76); [18]
  EC50: < 0.1 µg/mL
[7]; BHK-21, read-out: EC50 (ug/mL) (Neutral Red (NR) Assay)
  EC50: < 0.1 µg/mL
[7]; BHK-21, read-out: EC50 (ug/mL) (VIS Drug Assay)
  EC50: < 0.1 µg/mL
[8]; read-out: EC50 (ug/mL) (Neutral Red (NR) Assay)
  EC50: 0.3 µg/mL (≈ 0.447 µM)
[8]; read-out: EC50 (ug/mL) (VIS Drug Assay)
  EC50: 28 µg/mL (≈ 41.8 µM)
[9]; [17]
  EC50: 5.8 µg/mL (≈ 8.65 µM)
[9]; [18]
  EC50: 2.7 µg/mL (≈ 4.03 µM)
[10]; [13]
  EC50: 0.77 µg/mL (≈ 1.15 µM)
[10]; [14]
  EC50: 0.55 µg/mL (≈ 0.82 µM)
[11]; [13]
  EC50: < 0.1 µg/mL
[11]; [14]
  EC50: < 0.1 µg/mL
[12]; [15]
  EC50: 0.18 µg/mL (≈ 0.268 µM)
[12]; [16]
  EC50: 0.18 µg/mL (≈ 0.268 µM)
